Converted amounts (≈) assume the structure as drawn. The source made the active and inactive calls. The calls are words filed in the database; no cut-off is given here.
What was measured:
[1] = Half life in DTT buffer assessed as taxol release; format: ADME
[2] = Half life in presence of 30 ug/mL beta-glucuronidase assessed as taxol release at 30 ug/mL; format: ADME
[3] = test system: LoVo; test: Cytotoxicity against human LoVo cells in presence of beta-glucuronidase; format: functional, cell-based
[4] = test system: LoVo; test: Ratio of IC50 of drug for human LoVo cells to IC50 of taxotere for human LoVo cells; format: functional
[5] = test system: L2987; test: Cytotoxicity against human L2987 cells in presence of DTT; format: functional, cell-based
[6] = test system: L2987; test: Cytotoxicity against human L2987 cells; format: functional, cell-based
[7] = test system: EVSA-T; test: Cytotoxicity against human EVSA-T cells; format: functional, cell-based
[8] = Aqueous solubility of the compound; format: physicochemical; conditions: aqueous solution
[9] = test system: MCF7; test: Cytotoxicity against human MCF7 cells; format: functional, cell-based
[10] = Half life at pH 5; format: ADME; conditions: buffer
[11] = Half life at pH 7; format: ADME; conditions: buffer
[12] = test system: HT-29; test: Cytotoxicity against human HT29 cells; format: functional, cell-based; conditions: read-out: ED50 (the source's name)
[13] = test system: MCF7; test: Cytotoxicity against ERalpha positive human MCF7 cells; format: functional, cell-based; conditions: read-out: ED50 (the source's name)
[14] = Half life in presence of 10 uM beta-glucuronidase assessed as taxol release at 100 uM; format: ADME
[15] = test system: OVCAR-3; test: Cytotoxicity against human OVCAR-3 cells in presence of beta-glucuronidase; format: functional, cell-based
[16] = test system: OVCAR-3; test: Cytotoxicity against human OVCAR-3 cells; format: functional, cell-based
[17] = test system: LoVo; test: Ratio of IC50 of drug for human LoVo cells to IC50 of taxol for human LoVo cells; format: functional
[18] = Half life in PBS buffer assessed as taxol circulation time at pH 7; format: ADME

CC(=O)O[C@H]1C(=O)[C@@]2(C)[C@H]([C@H](OC(=O)c3ccccc3)[C@]3(O)C[C@H](OC(=O)[C@H](OC(=O)C(C)(C)CCSSCC(NC(=O)CCC(N)C(=O)O)C(=O)NCC(=O)O)[C@@H](NC(=O)c4ccccc4)c4ccccc4)C(C)=C1C3(C)C)[C@]1(OC(C)=O)CO[C@@H]1C[C@@H]2O (some centres not stated)
t1/2 [1]: 1 h

CC(=O)O[C@H]1C(=O)[C@@]2(C)[C@H]([C@H](OC(=O)c3ccccc3)[C@]3(O)C[C@H](OC(=O)[C@H](OC(=O)N(C)CCN(C)C(=O)OCc4ccc(O[C@@H]5O[C@H](C(=O)O)[C@@H](O)[C@H](O)[C@H]5O)c([N+](=O)[O-])c4)[C@@H](NC(=O)OC(C)(C)C)c4ccccc4)C(C)=C1C3(C)C)[C@]1(OC(C)=O)CO[C@@H]1C[C@@H]2O
t1/2 [2]: 0.167 h
Activity [3]: inactive
Ratio IC50 [4]: 337

CC(=O)O[C@H]1C(=O)[C@@]2(C)[C@H]([C@H](OC(=O)c3ccccc3)[C@]3(O)C[C@H](OC(=O)[C@H](OC(=O)C(C)(C)CCSS[C@@H]4C[C@H](CO)[C@@H](O)[C@H](O)[C@H]4O)[C@@H](NC(=O)c4ccccc4)c4ccccc4)C(C)=C1C3(C)C)[C@]1(OC(C)=O)CO[C@@H]1C[C@@H]2O
IC50 [5]: 200 nM
IC50 [6]: 5700 nM
t1/2 [1]: 0.2 h

CC(=O)O[C@H]1C(=O)[C@@]2(C)[C@H]([C@H](OC(=O)c3ccccc3)[C@]3(O)C[C@H](OC(=O)[C@H](OC(=O)C[C@H](O)C(=O)[O-])[C@@H](NC(=O)c4ccccc4)c4ccccc4)C(C)=C1C3(C)C)[C@]1(OC(C)=O)CO[C@@H]1C[C@@H]2O.[Na+]
IC50 [7]: < 3 ng/mL
solubility [8]: 600 µg/mL
IC50 [9]: < 3 ng/mL

CC(=O)O[C@H]1C(=O)[C@@]2(C)[C@H]([C@H](OC(=O)c3ccccc3)[C@]3(O)C[C@H](OC(=O)[C@H](OC(=O)COCC(=O)NCCOCCOCCOCCNC(=O)CCC(NC(=O)c4ccc(NCc5cnc6nc(N)[nH]c(=O)c6n5)cc4)C(=O)O)[C@@H](NC(=O)c4ccccc4)c4ccccc4)C(C)=C1C3(C)C)[C@]1(OC(C)=O)CO[C@@H]1C[C@@H]2O (some centres not stated)
half-life [10]: > 300 h
half-life [11]: 40 h
EC50 [12]: 2.9 ng/mL (≈ 1.85 nM)
EC50 [13]: 3.3 ng/mL (≈ 2.11 nM)

CC(=O)O[C@H]1C(=O)[C@@]2(C)[C@H]([C@H](OC(=O)c3ccccc3)[C@]3(O)C[C@H](OC(=O)[C@H](OC(=O)CC(C)(C)CNC(=O)O[C@@H]4O[C@H](C(=O)[O-])[C@@H](O)[C@H](O)[C@H]4O)[C@@H](NC(=O)c4ccccc4)c4ccccc4)C(C)=C1C3(C)C)[C@]1(OC(C)=O)CO[C@@H]1C[C@@H]2O.[Na+]
t1/2 [14]: 2 h
IC50 [15]: 0.6 nM
IC50 [16]: 20 nM

Cn1c(=O)oc2ccc([N+](=O)[O-])cc21
Activity [3]: inactive
Ratio IC50 [17]: 3000

CC(=O)O[C@H]1C(=O)[C@@]2(C)[C@H]([C@H](OC(=O)c3ccccc3)[C@]3(O)C[C@H](OC(=O)[C@H](OC(=O)C[C@H](O)C(=O)O)[C@@H](NC(=O)c4ccccc4)c4ccccc4)C(C)=C1C3(C)C)[C@]1(OC(C)=O)CO[C@@H]1C[C@@H]2O
IC50 [7]: < 3 ng/mL
solubility [8]: 200 µg/mL (≈ 206000 nM)
IC50 [9]: < 3 ng/mL
t1/2 [18]: > 24 h

CC(=O)O[C@H]1C(=O)[C@@]2(C)[C@H]([C@H](OC(=O)c3ccccc3)[C@]3(O)C[C@H](OC(=O)[C@H](OC(=O)N(C)c4cc([N+](=O)[O-])ccc4O[C@@H]4O[C@H](C(=O)O)[C@@H](O)[C@H](O)[C@H]4O)[C@@H](NC(=O)c4ccccc4)c4ccccc4)C(C)=C1C3(C)C)[C@]1(OC(C)=O)CO[C@@H]1C[C@@H]2O
IC50 [3]: 100 nM
Ratio IC50 [17]: 722

CC(=O)O[C@H]1C(=O)[C@@]2(C)[C@H]([C@H](OC(=O)c3ccccc3)[C@]3(O)C[C@H](OC(=O)[C@H](OC(=O)Cc4ccc(NC(=O)O[C@@H]5O[C@H](C(=O)O)[C@@H](O)[C@H](O)[C@H]5O)cc4)[C@@H](NC(=O)c4ccccc4)c4ccccc4)C(C)=C1C3(C)C)[C@]1(OC(C)=O)CO[C@@H]1C[C@@H]2O
IC50 [15]: 0.23 nM
IC50 [16]: 0.23 nM

From ChEMBL document CHEMBL1140624, “Improved biochemical strategies for targeted delivery of taxoids” (Bioorg Med Chem, 2007)
